Data: ChEMBL document CHEMBL3885861, “Open TG-GATES”

Species: Rattus norvegicus
Assay: Open TG-GATES - Regimen: Single
Type: toxicity, organism-based, Sprague-Dawley
Set-up: regimen Single, gender Male, age 6 weeks
Conditions: in vivo, po, route gavage; for APTT / Bas / Eos / Fbg / Hb / Ht / Lym / MCV / Mono / PT / Plat / RBC / Ret / WBC / MCHC / Neu: tissue Blood; for ALP / ALT / AST / BUN / CRE / Ca / Cl / DBIL / GLC / IP / K / LDH / Na / PL / RALB / TBIL / TC / TG / TP / gamma-GTP: tissue Plasma
[1] = 0 mg/kg, 3 h, dose level Control
[2] = 0 mg/kg, 6 h, dose level Control
[3] = 0 mg/kg, 9 h, dose level Control
[4] = 0 mg/kg, 24 h, dose level Control

## O=C(O)c1cccnc1 [NIACIN]
[1]
  APTT: 24 s
  Bas: 0%
  Eos: 0.8%
  Fbg: 311.4 mg/dL
  Hb: 13.5 g/dL
  Ht: 40.1%
  Lym: 81.2%
  MCV: 63.7 fL
  Mono: 2.2%
  PT: 16.4 s
  Plat: 118.4 x10_4/uL
  RBC: 630 x10_4/ul
  Ret: 7.9%
  WBC: 80.3 x10_2/uL
  ALP: 1666.4 IU/L
  ALT: 44.8 IU/L
  AST: 68.6 IU/L
  BUN: 12.8 mg/dL
  CRE: 0.1 mg/dL
  Ca: 11 mg/dL
  Cl: 102.6 meq/L
  DBIL: 0 mg/dL
  GLC: 182.4 mg/dL
  IP: 9.1 mg/dL
  K: 4.2 meq/L
  LDH: 165 IU/L
  Na: 140.8 meq/L
  PL: 138.6 mg/dL
  RALB: 2.9 g/dL
  TBIL: 0.002 mg/dL
  TC: 80.8 mg/dL
  TG: 48.2 mg/dL
  TP: 5.7 g/dL
  gamma-GTP: 1.4 IU/L
[2]
  Bas: 0%
  Eos: 0.8%
  Fbg: 304 mg/dL
  Hb: 13.6 g/dL
  Ht: 40.5%
  Lym: 76.2%
  MCHC: 33.7%
  MCV: 62.9 fL
  Mono: 2.8%
  PT: 16.5 s
  Plat: 116.7 x10_4/uL
  RBC: 643.6 x10_4/ul
  Ret: 7.8%
  WBC: 105.2 x10_2/uL
  ALP: 1639.8 IU/L
  ALT: 37.8 IU/L
  AST: 72.2 IU/L
  BUN: 12.6 mg/dL
  CRE: 0.1 mg/dL
  Ca: 10.8 mg/dL
  Cl: 103.6 meq/L
  DBIL: 0 mg/dL
  GLC: 196.8 mg/dL
  IP: 9.5 mg/dL
  K: 4.3 meq/L
  LDH: 211.2 IU/L
  Na: 140.2 meq/L
  PL: 141 mg/dL
  RALB: 3 g/dL
  TBIL: 0.008 mg/dL
  TC: 79.2 mg/dL
  TG: 68.4 mg/dL
  TP: 5.5 g/dL
  gamma-GTP: 1 IU/L
[3]
  Bas: 0%
  Eos: 0.8%
  Fbg: 312.8 mg/dL
  Hb: 13 g/dL
  Ht: 39.1%
  Lym: 81.4%
  MCHC: 33.3%
  MCV: 62.3 fL
  Mono: 2.6%
  Neu: 13.8%
  Plat: 119.2 x10_4/uL
  RBC: 627.8 x10_4/ul
  Ret: 8%
  WBC: 95.1 x10_2/uL
  ALP: 1434.4 IU/L
  ALT: 38.4 IU/L
  AST: 70.6 IU/L
  BUN: 11.8 mg/dL
  CRE: 0.2 mg/dL
  Ca: 10.7 mg/dL
  Cl: 104 meq/L
  DBIL: 0.004 mg/dL
  GLC: 185.4 mg/dL
  IP: 9.4 mg/dL
  K: 4.2 meq/L
  LDH: 177.2 IU/L
  Na: 140.4 meq/L
  PL: 129 mg/dL
  RALB: 3 g/dL
  TBIL: 0.01 mg/dL
  TC: 74.4 mg/dL
  TG: 52.2 mg/dL
  TP: 5.5 g/dL
  gamma-GTP: 1.2 IU/L
[4]
  Bas: 0%
  Eos: 1%
  Fbg: 327.2 mg/dL
  Hb: 13.2 g/dL
  Ht: 39.3%
  Lym: 81.2%
  MCHC: 33.6%
  MCV: 63.3 fL
  Mono: 2.6%
  Neu: 14%
  PT: 16.1 s
  Plat: 120.2 x10_4/uL
  RBC: 621.2 x10_4/ul
  Ret: 7.5%
  WBC: 115.4 x10_2/uL
  ALP: 1844 IU/L
  ALT: 45 IU/L
  AST: 70 IU/L
  BUN: 15.6 mg/dL
  CRE: 0.2 mg/dL
  Ca: 10.6 mg/dL
  Cl: 104.2 meq/L
  DBIL: 0 mg/dL
  GLC: 197.2 mg/dL
  IP: 8.2 mg/dL
  K: 4.3 meq/L
  LDH: 200 IU/L
  Na: 140.4 meq/L
  PL: 147.6 mg/dL
  RALB: 3 g/dL
  TBIL: 0.002 mg/dL
  TC: 74.6 mg/dL
  TG: 104 mg/dL
  TP: 5.5 g/dL
  gamma-GTP: 1.4 IU/L
100 mg/kg, 3 h, dose level Low
  APTT: 22.6 s
